# Assay results as given in patent US20260028364A1, “CATIONIC CHROMENONES AND THEIR USE IN ONCOLOGY” (FLORATEK PHARMA S.A., priority 2022, published 2026).
# How the values were obtained:
# A375 = assay: CellTiter-Glo cell viability, A375; format: cell-based; conditions: A375 cells, 72 h with compound
# Description: (§1) Antitumor activity against a panel of cancer cell lines Antitumor activity of the compounds was assessed by using the CellTiter-Glow® Luminescent Cell Viability assay (Promega #G7572) according to the manufacturer's instructions. The compounds were tested at 5 or 6 concentrations in 1:2 dilution increments (highest concentration 10 µM) in triplicate well conditions.
# (§2) Tumor cells were grown at 37° C. in a humidified atmosphere with 5% CO2 in RPMI 1640 or DMEM medium, supplemented with 10% (v/v) fetal calf serum and 50 μg/ml gentamicin for up to 20 passages, and were passaged once or twice weekly. Cells were harvested using TrypLE or PBS buffer containing 1 mM EDTA, and the percentage of viable cells is determined using a cell counter.
# (§3) Cells were harvested from exponential phase cultures, counted and plated in 96 well flat-bottom microtiter plates at a cell density depending on the cell line's growth rate (4,000-20,000 cells/well depending on the cell line's growth rate) in RPMI 1640 or DMEM medium supplemented with 10% (v/v) fetal calf serum and 50 μg/ml gentamicin (140 μl/well). Cultures were incubated at 37° C. and 5% CO2 in a humidified atmosphere. After 24 h, 10 μl of test compounds or control medium are added, and left on the cells for another 72 h. Compounds were serially diluted in DMSO, transferred in cell culture medium, and added to the assay plates. The DMSO concentration was kept constant at <0.2% v/v across the assay plate. Viability of cells was quantified by the CellTiter-Glow® Luminescent Cell Viability assay (Promega #G7572). Luminescence was measured with the microplate luminometer (En Vision Perkin Elmer).
# (§4) Sigmoidal concentration-response curves were fitted to the data points (test-versus-control, T/C values) obtained for each tumor model using Graph Pad prism 5.02 software. IC50 values are reported as absolute IC50 values, being the concentration of test compound at the intersection of the concentration-response curves with T/C=50%.
# MCF-7 = assay: CellTiter-Glo cell viability, MCF-7; format: cell-based; conditions: MCF-7 cells, 72 h with compound
# Description: as §1, §2, §3, §4
# [1] = test system: A2058 melanoma tumor cells; assay: In vivo tumour inhibition, A2058 melanoma xenograft; set-up: species or system Balb-c/nude mouse; conditions: for T/C / TGI: Example 5, 12 mg/kg, day 20 after treatment start; for activity in inhibiting A2058 melanoma cell line in vivo: nude mouse xenograft model of melanoma
# Description: The A2058 tumor cells were maintained in vitro in DMEM medium supplemented with 10% fetal bovine serum and 1% Anti-Anti at 37° C. in an atmosphere of 5% CO2 in air. The tumor cells were routinely subcultured twice weekly.
# Each Balb-c/nude mouse was inoculated subcutaneously at the right flank with A2058 melanoma tumor cells (5×10^6+Matrigel) in 0.2 ml of PBS for tumor development. 10 animals per group were randomized when the average tumor volume reached 74 mm^3. Test compounds were prepared as DMSO stocks and diluted in the injection vehicle before administration. The treatment was administered every other day (QOD) as a peritumoral injection. Vehicle composition was 4% DMSO, 5% ethanol, 20% PEG200, 71% saline. Dosing volume for all groups: 5 mL/kg.
# Tumor volume was measured twice weekly in two dimensions using a caliper, and the volume was expressed in mm^3 using the formula: V=0.5a×b^2 where a and b are the long and short diameters of the tumor, respectively. The tumor size was then used for calculations of T/C value: The T/C value (in percent) is an indication of antitumor effectiveness; T and Care the mean volumes of the treated and control groups, respectively, on a given day.
# One-way ANOVA was performed to compare tumor volume among treated groups and vehicle group, all data were analyzed using GraphPad Prism 5.0. p<0.05 was considered to be statistically significant.
# H69 = assay: CellTiter-Glo cell viability, H69; format: cell-based; conditions: H69 cells, 72 h with compound
# Description: as §1, §2, §3, §4
# SK-N-SH = assay: CellTiter-Glo cell viability, SK-N-SH; format: cell-based; conditions: SK-N-SH cells, 72 h with compound
# Description: as §1, §2, §3, §4
# SK-Mel-5 = assay: CellTiter-Glo cell viability, SK-Mel-5; format: cell-based; conditions: SK-Mel-5 cells, 72 h with compound
# Description: as §1, §2, §3, §4
# A2058 = assay: CellTiter-Glo cell viability, A2058; format: cell-based; conditions: A2058 cells, 72 h with compound
# Description: as §1, §2, §3, §4
# A-673 = assay: CellTiter-Glo cell viability, A-673; format: cell-based; conditions: A-673 cells, 72 h with compound
# Description: as §1, §2, §3, §4
# 22Rv1 = assay: CellTiter-Glo cell viability, 22Rv1; format: cell-based; conditions: 22Rv1 cells, 72 h with compound
# Description: as §1, §2, §3, §4
# HepG2 = assay: CellTiter-Glo cell viability, HepG2; format: cell-based; conditions: HepG2 cells, 72 h with compound
# Description: as §1, §2, §3, §4
# HCC-15 = assay: CellTiter-Glo cell viability, HCC-15; format: cell-based; conditions: HCC-15 cells, 72 h with compound
# Description: as §1, §2, §3, §4
# U87MG = assay: CellTiter-Glo cell viability, U87MG; format: cell-based; conditions: U87MG cells, 72 h with compound
# Description: as §1, §2, §3, §4
# NCI-H1299 = assay: CellTiter-Glo cell viability, NCI-H1299; format: cell-based; conditions: H1299 cells, 72 h with compound
# Description: as §1, §2, §3, §4
# BxPC-3 = assay: CellTiter-Glo cell viability, BxPC-3; format: cell-based; conditions: BxPC-3 cells, 72 h with compound
# Description: as §1, §2, §3, §4
# MIA-PaCa-2 = assay: CellTiter-Glo cell viability, MIA-PaCa-2; format: cell-based; conditions: MIA-PaCa-2 cells, 72 h with compound
# Description: as §1, §2, §3, §4
# MOLT-4 = assay: CellTiter-Glo cell viability, MOLT-4; format: cell-based; conditions: Homo sapiens; MOLT-4 cells, 72 h with compound
# Description: as §1, §2
# as §3, with “After 24 h, 10 μl of test compounds or control medium are added, and left on the cells for another 72 h. Compounds were serially diluted in DMSO, transferred in cell culture medium, and added to the assay plates. The DMSO concentration was kept constant at <0.2% v/v across the assay plate.” left out, “Elmer). […]” for “Elmer).”
IC50 (MOLT-4) [nM],Structure (SMILES),IC50 (A375) [nM],IC50 (MCF-7) [nM],T/C [1] [%],TGI [1] [%],activity in inhibiting A2058 melanoma cell line in vivo [1],IC50 (H69) [nM],IC50 (SK-N-SH) [nM],IC50 (SK-Mel-5) [nM],IC50 (A2058) [nM],IC50 (A-673) [nM],IC50 (22Rv1) [nM],IC50 (HepG2) [nM],IC50 (HCC-15) [nM],IC50 (U87MG) [nM],IC50 (NCI-H1299) [nM],IC50 (BxPC-3) [nM],IC50 (MIA-PaCa-2) [nM],"IC50 (A-673; Homo sapiens, A673) [nM]"
–,COc1ccc2c(=O)c(-c3ccc(CCCCCC[P+](c4ccccc4)(c4ccccc4)c4ccccc4)cc3)coc2c1OC.[Cl-] [SND477],210,210,35.6,68.7,significant activity,230,550,160,240,600,110,660,240,320,310,260,200,–
–,COc1ccc2c(=O)c(-c3ccc(CCCCCCCC[P+](c4ccccc4)(c4ccccc4)c4ccccc4)cc3)coc2c1OC [SND478],240,220,–,–,–,210,490,150,270,650,170,680,220,390,260,250,190,–
–,COc1ccc2c(=O)c(-c3ccc(CCCCCCCCCC[P+](c4ccccc4)(c4ccccc4)c4ccccc4)cc3)coc2c1OC.[Cl-] [SND479],210,170,33.5,70.0,significant activity,230,210,110,190,440,170,440,190,240,200,220,110,–
560,"O=c1c(-c2ccc(CCCC[P+](c3ccccc3)(c3ccccc3)c3ccccc3)cc2)coc2c(O)c(O)ccc12 [SND490, (4-(4-(7,8-Dihydroxy-4-oxo-4H-chromen-3-yl)phenyl)butyl)triphenylphosphonium bromide]",–,–,–,–,–,–,–,–,–,–,–,–,–,–,–,–,–,1950
